Reference: article PMC12349723, “Computationally accelerated identification of P-glycoprotein inhibitors” (PLOS One, 2025)
“And” between values parts separate entries of the source, which are not always exact repeats. Equal entries are not always repeated.

Target: T1, P-gp (Homo sapiens, UniProt P08183)
T1 construct: The MDR, P-gp overexpressing DU145-TXR cells were maintained under positive selection pressure; endogenous in cells; host or cells: DU145-TXR (paclitaxel-resistant sub-line of DU145 human prostate cancer cells)
Test: LC-MS/MS intracellular accumulation assay with or without tariquidar (P-gp transport substrate test) in DU145-TXR cells
Type: in vitro ADME
Settings: DU145-TXR, 5 µM compound with or without 500 nM tariquidar, 2.5 h, LC-MS/MS
Description: DU145-TXR cells were seeded at 350,000 cells per well in 6-well plates in complete RPMI medium. […] A full sample of DAU was also prepared for quantitative analysis. […] Media was removed with a glass vacuum aspirator. Cells were re-suspended and washed in 2mL of ice-cold Hank’s Balanced Salt Solution (HBSS, Gibco), and spun again at 2400 rpm. Cell lysates were diluted in 600 µL of ice-cold HBSS, flash-frozen in liquid nitrogen, and stored at −80 °C until analysis. LC-MS/MS intracellular accumulation assays were performed in collaboration with the Pharmacology Core at the University of Texas Southwestern Medical Center (UTSW). […] This method allowed us to quantify the change – if any – in the relative amount of compound present in the samples when TQR was added. An increase in the relative amount of compound indicates enhanced intracellular retention that compound. […] The “Internal Standard” (IS) is a known substance added in a constant amount to each sample. The “Peak Area”, expressed as “counts”, describes the number of MS/MS spectra from the experimental compound and serves as a measure of its relative abundance. […] These values allow a comparison of the relative abundance of compound between the “- TQR” and “+ TQR” samples, and to test for statistically significant differences. LC-MS/MS quantification was performed as follows. Cell lysate was aliquoted into Eppendorf tubes. In contrast to [9], blank cell lysates were not spiked with varying concentrations of each compound to create a standard curve, since compound amounts were normalized to abundance of the internal standard. […] The supernatant was then transferred to an HPCL vial, and subsequently analyzed using LC-MS/MS using a Sciex 4000QTRAP mass spectrometer coupled to a Shimadzu Prominence LC. […] The column flow rate was 1.5 ml/min using an Agilent C18 XDB, 5 micron packing 50 × 4.6 mm column. […] A BSA standard curve was then prepared in water and mixed using the same ratio. […] The ratio of Analyte to Internal Standard was normalized to the lysate content for each individual sample. […] Statistical significance was determined using a Student’s T Test in GraphPad Prism. We aimed to identify P-gp inhibitors that are not transport substrates of the pump itself. […] To test these predictions in vitro, liquid chromatography with tandem mass spectrometry (LC-MS/MS) was used to assess the intracellular accumulation of experimental compounds as described in [9]. […] The relative intracellular accumulation of each experimental compound was then assessed using LC-MS/MS. […] The P-gp substrate and chemotherapeutic daunorubicin (DAU) was used as a positive control for P-gp-mediated transport.

T1 sequence (P08183 whole entry): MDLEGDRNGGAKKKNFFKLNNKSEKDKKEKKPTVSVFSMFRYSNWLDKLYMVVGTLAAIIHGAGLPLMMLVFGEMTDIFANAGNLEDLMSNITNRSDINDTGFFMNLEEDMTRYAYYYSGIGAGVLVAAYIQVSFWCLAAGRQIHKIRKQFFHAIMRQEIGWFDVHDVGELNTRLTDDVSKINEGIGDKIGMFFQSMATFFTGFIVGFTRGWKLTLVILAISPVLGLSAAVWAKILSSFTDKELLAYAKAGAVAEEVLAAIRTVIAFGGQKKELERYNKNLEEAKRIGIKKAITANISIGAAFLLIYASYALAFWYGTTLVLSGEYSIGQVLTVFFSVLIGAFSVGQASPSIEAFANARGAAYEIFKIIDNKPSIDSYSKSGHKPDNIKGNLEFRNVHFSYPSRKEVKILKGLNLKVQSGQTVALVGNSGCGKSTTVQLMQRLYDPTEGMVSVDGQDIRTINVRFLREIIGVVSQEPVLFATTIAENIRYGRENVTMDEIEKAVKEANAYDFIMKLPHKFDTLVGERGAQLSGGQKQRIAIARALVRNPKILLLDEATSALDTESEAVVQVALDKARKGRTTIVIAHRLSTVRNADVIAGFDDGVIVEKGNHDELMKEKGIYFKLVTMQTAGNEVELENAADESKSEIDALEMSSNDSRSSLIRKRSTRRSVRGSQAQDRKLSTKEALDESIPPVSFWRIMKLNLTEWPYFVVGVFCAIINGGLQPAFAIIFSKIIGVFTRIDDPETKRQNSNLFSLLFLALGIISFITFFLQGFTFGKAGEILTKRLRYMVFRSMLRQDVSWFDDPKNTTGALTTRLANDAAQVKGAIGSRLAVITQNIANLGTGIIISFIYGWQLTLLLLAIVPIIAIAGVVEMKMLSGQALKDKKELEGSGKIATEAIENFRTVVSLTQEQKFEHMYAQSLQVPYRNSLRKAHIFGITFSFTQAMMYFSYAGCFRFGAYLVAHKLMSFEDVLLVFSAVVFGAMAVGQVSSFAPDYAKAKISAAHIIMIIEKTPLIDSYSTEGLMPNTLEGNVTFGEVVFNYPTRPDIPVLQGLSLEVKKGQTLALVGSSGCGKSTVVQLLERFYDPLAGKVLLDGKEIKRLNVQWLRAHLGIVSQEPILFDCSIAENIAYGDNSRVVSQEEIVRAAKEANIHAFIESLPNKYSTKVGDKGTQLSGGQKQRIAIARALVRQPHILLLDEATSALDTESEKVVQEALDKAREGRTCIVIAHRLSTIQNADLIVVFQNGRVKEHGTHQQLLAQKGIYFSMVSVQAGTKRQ

| SMILES | P-gp transport substrate assessment |
| --- | --- |
| O=S(=O)(Cc1nc2ccccc2n1CC(O)c1ccc(Cl)cc1)c1ccccc1 (stereo not drawn) [Compound 97, OC(Cn1c(CS(=O)(=O)c2ccccc2)nc2ccccc12)c1ccc(Cl)cc1] | unlikely to be transport substrates of P-gp |
| O=C(c1nc(-c2ccc3cc[nH]c3c2)no1)N1CCN(c2nsc3ccccc23)CC1 [Compound 70, O=C(N1CCN(CC1)c1nsc2ccccc12)c1nc(no1)-c1ccc2cc[nH]c2c1] | unlikely to be transport substrates of P-gp |

Same assay, conditions: DU145-TXR, 5 µM compound, 2.5 h, with 500 nM tariquidar; mean ± SD, triplicate

| SMILES | Intracellular accumulation (normalized ratio of compound to internal standard), Trial 1, + TQR | Intracellular accumulation (normalized ratio of compound to internal standard), Trial 2, + TQR | Intracellular accumulation (normalized ratio of compound to internal standard), Trial 3, + TQR |
| --- | --- | --- | --- |
| O=S(=O)(Cc1nc2ccccc2n1CC(O)c1ccc(Cl)cc1)c1ccccc1 (stereo not drawn) [Compound 97, OC(Cn1c(CS(=O)(=O)c2ccccc2)nc2ccccc12)c1ccc(Cl)cc1] | 0.08 ± 0.03 | 0.10 ± 0.02 | – |
| O=C(c1nc(-c2ccc3cc[nH]c3c2)no1)N1CCN(c2nsc3ccccc23)CC1 [Compound 70, O=C(N1CCN(CC1)c1nsc2ccccc12)c1nc(no1)-c1ccc2cc[nH]c2c1] | 0.93 ± 0.07 | 0.55 ± 0.15 | – |
| O=C(c1cc2ccccc2[nH]1)N1CCN(S(=O)(=O)c2cccc3nonc23)CC1 [Compound 66, O=C(N1CCN(CC1)S(=O)(=O)c1cccc2nonc12)c1cc2ccccc2[nH]1] | 0.833 ± 0.124 | 0.036 ± 0.005 | 0.140 ± 0.029 |

Same assay, conditions: DU145-TXR, 5 µM compound, 2.5 h, without tariquidar; mean ± SD, triplicate

| SMILES | Intracellular accumulation (normalized ratio of compound to internal standard), Trial 1, - TQR | Intracellular accumulation (normalized ratio of compound to internal standard), Trial 2, - TQR | Intracellular accumulation (normalized ratio of compound to internal standard), Trial 3, - TQR |
| --- | --- | --- | --- |
| O=S(=O)(Cc1nc2ccccc2n1CC(O)c1ccc(Cl)cc1)c1ccccc1 (stereo not drawn) [Compound 97, OC(Cn1c(CS(=O)(=O)c2ccccc2)nc2ccccc12)c1ccc(Cl)cc1] | 0.07 ± 0.02 | 0.10 ± 0.02 | – |
| O=C(c1nc(-c2ccc3cc[nH]c3c2)no1)N1CCN(c2nsc3ccccc23)CC1 [Compound 70, O=C(N1CCN(CC1)c1nsc2ccccc12)c1nc(no1)-c1ccc2cc[nH]c2c1] | 0.93 ± 0.15 | 0.56 ± 0.11 | – |
| O=C(c1cc2ccccc2[nH]1)N1CCN(S(=O)(=O)c2cccc3nonc23)CC1 [Compound 66, O=C(N1CCN(CC1)S(=O)(=O)c1cccc2nonc12)c1cc2ccccc2[nH]1] | 0.747 ± 0.096 | 0.040 ± 0.001 | 0.170 ± 0.039 |

Same assay, conditions: Student's T test of the mean

| SMILES | P (- TQR vs + TQR), Trial 1 | P (- TQR vs + TQR), Trial 2 | P (- TQR vs + TQR), Trial 3 |
| --- | --- | --- | --- |
| O=S(=O)(Cc1nc2ccccc2n1CC(O)c1ccc(Cl)cc1)c1ccccc1 (stereo not drawn) [Compound 97, OC(Cn1c(CS(=O)(=O)c2ccccc2)nc2ccccc12)c1ccc(Cl)cc1] | 0.7 | > 1 | – |
| O=C(c1nc(-c2ccc3cc[nH]c3c2)no1)N1CCN(c2nsc3ccccc23)CC1 [Compound 70, O=C(N1CCN(CC1)c1nsc2ccccc12)c1nc(no1)-c1ccc2cc[nH]c2c1] | > 1 | 0.9 | – |
| O=C(c1cc2ccccc2[nH]1)N1CCN(S(=O)(=O)c2cccc3nonc23)CC1 [Compound 66, O=C(N1CCN(CC1)S(=O)(=O)c1cccc2nonc12)c1cc2ccccc2[nH]1] | 0.4 | 0.2 | 0.3 |

Same assay, conditions: significant difference = likely P-gp transport substrate

| SMILES | Significance of accumulation with tariquidar, Trial 1 | Significance of accumulation with tariquidar, Trial 2 |
| --- | --- | --- |
| O=S(=O)(Cc1nc2ccccc2n1CC(O)c1ccc(Cl)cc1)c1ccccc1 (stereo not drawn) [Compound 97, OC(Cn1c(CS(=O)(=O)c2ccccc2)nc2ccccc12)c1ccc(Cl)cc1] | N.S. (P > 0.05 = not significant (N.S.)) | N.S. (P > 0.05 = not significant (N.S.)) |
| O=C(c1nc(-c2ccc3cc[nH]c3c2)no1)N1CCN(c2nsc3ccccc23)CC1 [Compound 70, O=C(N1CCN(CC1)c1nsc2ccccc12)c1nc(no1)-c1ccc2cc[nH]c2c1] | N.S. (P > 0.05 = not significant (N.S.)) | N.S. (P > 0.05 = not significant (N.S.)) |

Tested on: DU145 cells
Test: MTT viability assay, non-P-gp overexpressing DU145 parental line, with or without PTX
Type: cell-based, human
Settings: 15 µM compound + PTX vs PTX alone
Description: The chemotherapeutic sensitive DU145 human prostate cancer cells and the multidrug resistant sub-line, DU145-TXR, were generous gifts from Dr. Evan Keller (University of Michigan, Ann Arbor, MI). The MDR, P-gp overexpressing DU145-TXR cells were maintained under positive selection pressure by supplementing complete medium with 10 nM paclitaxel (Acros Organics, NJ). […] The MDR, P-gp overexpressing A2780-ADR cell line was maintained under positive selection pressure by supplementing complete medium with 100 nM doxorubicin (Fisher Scientific, NJ). The non-cancerous HFL1 (human lung fibroblast) cell line cell line was a generous gift from Dr. Robert Harrod (Southern Methodist University, Dallas, TX) and was maintained in complete F12K media consisting of F12K with 10% fetal bovine serum, 100 U/mL penicillin, and 100 µg/mL streptomycin (Gibco). Flasks and 96 well plates that were used with the non-cancerous line HFL1 were pre-treated with 0.1 mg/ml Collagen Type 1 (Gibco) and rinsed with PBS (Fisher).
Culture of the DU145, DU145-TXR, and HFL1 cell lines was performed as described in [8]. Culture of the A2780 and A2780-ADR cell lines was performed as described in [9]. MTT assays were performed as described in [8] with minor modifications. […] Data represent the mean of two separate experiments, with n = 3 samples per experiment (n = 6 total) (S4 Table).
MTT assays measure the reduction of yellow, water soluble 3-(4,5-dimethylthiazol-2-yl)-2,5-diphenyltetrazolium bromide (MTT) to blue, insoluble formazan crystals by cellular reductase processes in living cells. Cells were trypsinized from monolayers and seeded in complete medium in 96 well plates. Cancerous cell lines (DU145, DU145-TXR, A2780, A2780-ADR) were seeded at 3,000 cells per well in complete RPMI medium. The non-cancerous HFL1 line was seeded at 4,000 cells per well in complete F12K medium, in collagen-treated plates (Collagen Type 1, Gibco). Cells were incubated with experimental compounds for 48 hours at 37 °C and 5% CO2 in a humidified incubator. At 48 hours, MTT was added (20 µL/well of 5 mg/mL MTT in PBS) to each well. After incubation for 4 hours, the media was removed, and the formazan crystals were dissolved in 100 µL DMSO per well. Plates containing the semi-adherent A2780 or A2780-ADR lines were spun at 1400 rpm for 3 minutes prior to aspiration of media, and the addition of DMSO. Plates were shaken for 10 minutes at 500 rpm on an Orbital shaker (LabDoctor from MidSci, St Louis, MO). The absorbance was measured at 570 nm using a Bio-Tek Cytation 5 (Bio-Tek, Winooski, VT). The measured absorbance value was correlated with the number of metabolically active cells in that well, corrected for absorbance of media. The percent of cell viability (termed ‘survival’ here) was calculated as a percentage of survival of the control condition, which refers to vehicle-treated (DMSO as vehicle) cells, or vehicle-and-chemotherapeutic-treated cells, if testing a compound’s ability to re-sensitize cells to a chemotherapeutic. Percent survival was calculated using the following equation:
% Survival=100 × absorbance of experimental cells/mean absorbance of control treated cells
For DU145-TXR, DU145, HFL1 and A2780 cells – data are the mean ± one standard deviation, 8 samples per compound, from at least two independent trials per compound. […] For A2780-ADR cells, data are the mean ± one standard deviation with 12 samples per compound, from at least two independent trials per compound.
67 compounds were chosen from computational screens for testing in vitro. A) DU145-TXR cells were exposed to 15 µM experimental compound with or without 500 nM of the P-gp substrate and chemotherapeutic paclitaxel (PTX).

| SMILES | Sensitization of DU145 cells to PTX |
| --- | --- |
| O=S(=O)(Cc1nc2ccccc2n1CC(O)c1ccc(Cl)cc1)c1ccccc1 (stereo not drawn) [Compound 97, OC(Cn1c(CS(=O)(=O)c2ccccc2)nc2ccccc12)c1ccc(Cl)cc1] | insignificantly sensitize DU145 cells to PTX |
| O=C(c1nc(-c2ccc3cc[nH]c3c2)no1)N1CCN(c2nsc3ccccc23)CC1 [Compound 70, O=C(N1CCN(CC1)c1nsc2ccccc12)c1nc(no1)-c1ccc2cc[nH]c2c1] | insignificantly sensitize DU145 cells to PTX |

Same assay, conditions: DU145 cells, 48 h, mean of 8 samples

| SMILES | % Survival, Mean, 15 µM compound + 500 nM PTX [%] |
| --- | --- |
| O=S(=O)(Cc1nc2ccccc2n1CC(O)c1ccc(Cl)cc1)c1ccccc1 (stereo not drawn) [Compound 97, OC(Cn1c(CS(=O)(=O)c2ccccc2)nc2ccccc12)c1ccc(Cl)cc1] | 23.9 |
| O=C(c1nc(-c2ccc3cc[nH]c3c2)no1)N1CCN(c2nsc3ccccc23)CC1 [Compound 70, O=C(N1CCN(CC1)c1nsc2ccccc12)c1nc(no1)-c1ccc2cc[nH]c2c1] | 30.5 |

Same assay, conditions: DU145 cells, 48 h, single samples, 2 trials x 4 samples

| SMILES | % Survival, 15 µM Compound alone (individual samples) [%] | % Survival, 15 µM compound + 500 nM PTX (individual samples) |
| --- | --- | --- |
| O=S(=O)(Cc1nc2ccccc2n1CC(O)c1ccc(Cl)cc1)c1ccccc1 (stereo not drawn) [Compound 97, OC(Cn1c(CS(=O)(=O)c2ccccc2)nc2ccccc12)c1ccc(Cl)cc1] | 72 | – |
| O=C(c1nc(-c2ccc3cc[nH]c3c2)no1)N1CCN(c2nsc3ccccc23)CC1 [Compound 70, O=C(N1CCN(CC1)c1nsc2ccccc12)c1nc(no1)-c1ccc2cc[nH]c2c1] | 88 | 32% and 30% |

Same assay, conditions: Homo sapiens, DU-145, 48 h, DU145 cells, 48 h, mean of 8 samples, read-out: % Survival, Mean, 15 µM Compound alone

| SMILES | viability at 15 µM [%] |
| --- | --- |
| O=S(=O)(Cc1nc2ccccc2n1CC(O)c1ccc(Cl)cc1)c1ccccc1 (stereo not drawn) [Compound 97, OC(Cn1c(CS(=O)(=O)c2ccccc2)nc2ccccc12)c1ccc(Cl)cc1] | 73.5 |
| O=C(c1nc(-c2ccc3cc[nH]c3c2)no1)N1CCN(c2nsc3ccccc23)CC1 [Compound 70, O=C(N1CCN(CC1)c1nsc2ccccc12)c1nc(no1)-c1ccc2cc[nH]c2c1] | 84.7 |
